The source of these data is patent US6534277B1, “Method for identifying a compound to be tested for an ability to reduce immune rejection by determining Stat4 and Stat6 proteins” (Millennium Pharmaceuticals, Inc., priority 2000, dated 2003).

For experiment [1], the system named is CD154 expression by CD3 mAb-activated CD4+ splenic T cells. Briefly: Activation-induced CD154 expression by CD4+ T cells, dual color flow cytometry. It is filed as cell-based, mouse. The note with it: 7 hr, plate-bound CD3 mAb; for effect on activation-induced CD154 expression, in words: drug concentrations as b343 (10 μM lactacystin, 10 μM MG-273); for suppression (inhibition) of activation-induced CD154 expression: 125 ng/ml cyclosporin A, 20 ng/ml rapamycin, 100 μg/ml methylprednisolone, 1 μM mycophenolate mofetil, three experiments. On the procedure: Six-well plates (Costar) were pre-coated overnight with 1 μg/ml of […] anti-mouse CD3 mAb (2C11). After washing with media (RPMI supplemented with 10% fetal bovine serum, 50 U/ml penicillin, 50 μg/ml streptomycin, 2 mM glutamine and 50 μM 2-mercaptoethanol) one ml of media containing 2× final drug concentration was added to each well. After testing of a range of concentrations of each agent, the optimal final physiologic drug concentrations for the data to be reported were 125 ng/ml cyclosporin A, 20 ng/ml rapamycin. 100 μg/ml methylprednisolone, 1 μM mycophenolate mofetil, 10 μm lactacystin and 10 μM MG-273. Cells were obtained from mechanically disrupted spleens and, after collection by centrifugation and washing once with media, one ml aliquots containing two million viable splenocytes were added to each well. Cultures were incubated at 37° C. in 5% CO2 for 7 hr. and were then diluted two-fold with chilled media containing 0.1% sodium azide (FACS media). Cells were collected by centrifugation at 4° C., resuspended in FACS media containing 1 μg Fc Block (PharMingen) and incubated on ice for 15 min. Samples were then split and either a mixture of 1 μg each of FITC-conjugated CD4-specific mAb and PE-conjugated control hamster IgG mAb or FITC-conjugated CD4-specific mAb and PE-conjugated CD154-specific mAb were added. After a 30 min incubation on ice, cells were washed twice and analyzed on a Becton Dickinson FACScan using Cell Quest software. Viable CD4+ lymphocytes were gated using a combination of forward/side scatter and CD4 staining.

The test system of experiment [2] is BALB/c cardiac allograft in B6/129 wild-type mice. The experiment is described as follows: Heterotopic cardiac allograft survival, BALB/c donors into B6/129 wild-type recipients. It is filed as in vivo, mouse. Particulars: with CD154 mAb/DST, rapamycin 0.2 mg/kg/d i.p., cyclosporin A 10 mg/kg/d i.p., methylprednisolone 1 mg/kg i.p., PS-519 1 mg/kg/d i.p., p<0.001. On the procedure:
Heterotopic cardiac allografting was performed with anastomoses to the abdominal aorta and vena cava (Hancock et al., 1998, Nature Medicine 4:1392-1396), using BALB/c donors and B6/129 wild-type or […] mice as recipients. Recipients were treated with hamster IgG or hamster anti-mouse (CD40L mAb; 250 μg, administered intravenously) plus DST (5×10^6 splenic mononuclear cells) at the time of transplantation (Hancock et al., 1998, Nature Medicine 4:1392-1396).
Heterotopic cardiac allografting was performed with anastomoses to the abdominal aorta and vena cava (Hancock, W. W. et al., 1998, Nature Medicine 4:1392-1396), using BALB/c donors and B6/129 wild-type or NF-κB/p50 KO mice as recipients (n=6/group). Recipients were treated with hamster IgG or hamster anti-mouse CD154 mAb (250 μg, i.v.) plus DST (“donor specific transfusion”; 5×10^6 splenic mononuclear cells) at the time of transplantation (Hancock, W. W. et al., 1998, Nature Medicine 4:1392-1396). […] Graft survival was monitored by daily palpation, and rejection was confirmed by laparotomy and histologic evaluation.
Heterotopic cardiac allografting was performed with anastomoses to the abdominal aorta and vena cava, using BALB/c donors and B6/129 wild-type or Stat-6 KO mice as recipients (n=6/group). […] Graft survival was monitored by daily palpation and rejection was confirmed by laparotomy and histologic evaluation.

“Also recorded” adds a separate entry of the source.

As for `CC(C)C[C@H](NC(=O)[C@H](Cc1cccc2ccccc12)NC(=O)N1CCOCC1)B(O)O` [MG-273], in experiment [1], the “effect on activation-induced CD154 expression, in words” value is on record as “significantly decreased; also recorded: significantly blocked”.

`COc1c(C)c2c(c(O)c1C/C=C(\C)CCC(=O)OCCN1CCOCC1)C(=O)OC2` [mycophenolate mofetil]: in experiment [1], the “suppression (inhibition) of activation-induced CD154 expression” value (“suppression (inhibition)” for short) is less than 10% and the “effect on activation-induced CD154 expression, in words” value is recorded as “complete lack of effect”.

With `C[C@H]1C[C@@H]2[C@H]([C@@H](O)C[C@@]3(C)[C@H]2CC[C@]3(O)C(=O)CO)[C@@]2(C)C=CC(=O)C=C12` [methylprednisolone, 6α-methylprednisolone], the “suppression (inhibition)” value in experiment [1] is given as more than 90%.

On to `CCC[C@H]1C(=O)N[C@@]2([C@@H](O)C(C)C)C(=O)O[C@@H]12` [PS-519], for which the entries for the “effect of concomitant agent on the effects (efficacy) of CD154 mAb therapy on allograft survival” value in experiment [2] (listed as lactacystin-derived (LC) proteasome inhibitor) and in experiment [2] (listed as proteasome inhibitor) were “significantly impaired” and “blocked”, respectively.

`CO[C@H]1C[C@@H]2CC[C@@H](C)[C@@](O)(O2)C(=O)C(=O)N2CCCC[C@H]2C(=O)O[C@H]([C@H](C)C[C@@H]2CC[C@@H](O)[C@H](OC)C2)CC(=O)[C@H](C)/C=C(\C)[C@@H](O)[C@@H](OC)C(=O)[C@H](C)C[C@H](C)/C=C/C=C/C=C/1C` [rapamycin]: the “suppression (inhibition)” value in experiment [1] is less than 20%.
